Assay results as given in patent US12193465B2, “Materials and methods for extending shelf-life of foods” (JP Laboratories, Inc., priority 2021, dated 2025).

Legend:
[1] = tested on: grains, legumes, potatoes, garlic; assay: Germination / sprouting of grains, legumes and tubers; details: potatoes
From the text: (§1) These bags were sealed with a heat sealer.
(§2) The assembly was shaken periodically.

[2] = Color change / browning / yellowing of foods (keeping produce green longer); details: Example 92, Browning, Coriander, Sachet, control 11 days
Experimental: (§3) All studies were conducted at a room temperature of about 25° C. To determine the effectiveness of a shelf-life extender, a control sample which was untreated with any shelf-life extenders, was tested identical to the test samples. […] All studies in those Examples of Tables 1-6 were conducted in closed plastic or glass containers. Containers, such as plastic containers, without or with lids having holes can be used if it is advantageous to let excess moisture escape or to prevent condensation of moisture released by some produce.
(§4) Food exposed to preservatives or by a sachet was placed in typically polystyrene or acrylic containers depending upon the size and number of food items. Glass jars and bottles were also used. The containers were snap-closed or with a lid. The containers were purchased mainly from Amazon or Webstaurant.com store. When needed, plastic containers with holes or without lids were used.
(§5) For controlled exposure and a constant supply of a preservative to foods, sachets containing one or more drops of preservatives were used. Sachets were made by placing an appropriate amount of a preservative in a plastic bag containing a piece of paper and heat sealing the bag. The sachet bag materials used were Tyvek® for solid preservative, polyethylene, polyester and high barrier multilayer films were used for liquid preservatives. These bags were sealed with a heat sealer. The sachet was typically applied on one side of the container containing food.
(§6) A piece of paper napkin was taped inside a 100 microns thick polyethylene or polyester Ziploc bag. The size of the bag varied from ˜20 cm×30 cm to ˜60 cm×90 cm depended on the sample with sandwich bags up to gallon bags being exemplary. The paper napkin was wetted with 0.1-0.5 ml of a preservative or a mixture of preservatives. A tray of aluminum, stainless steel or glass containing the foods was placed inside the plastic (polyethylene, polyester and multilayer-laminated) bag and almost closed by locking the Ziploc. Air was blown with an air blower from the unclosed end until the bag was fully blown and then quickly closed tightly by locking the remaining Ziploc. If a preservative was a sublimable solid, it was placed in a petri dish and then placed inside the bag in the tray before blowing air. The exposure time was varied from five minutes to a day depending upon the food. […] The assembly was shaken periodically. After the predetermined time, the tray containing produce was removed from the bag, allowed to de-gas for 10-30 minutes in air and the produce was then placed in an appropriately sized container. Glass and stainless steel containers with lids were also often used.
(§7) A solution of one or more preservatives was prepared in a large (e.g., 2-10 liter) glass beaker or a jar. A sack containing the food was prepared by placing the food in a plastic mesh bag. The sack was placed in the solution of the preservative. A smaller glass beaker containing proper amount of water was place over the package to keep the sack soaked in the solution of the preservative during the treatment. The solution was stirred either with a plastic spatula or with a magnet over a magnetic stirrer. After treatment, the mesh sack was removed, the produce was washed in a tray with running water, strained and air dried at 30° C. in an air blowing oven for about 5-10 minutes, while shaking the tray or turning the food periodically followed by placing the sample in an appropriate container.
(§8) The food was placed in mesh trays and sprayed with an aqueous solution (1-10%) of a preservative while shaking the tray or turning the food. The solution was allowed to drain from the tray and the food was air dried in an air blowing oven at 30° C. for about 5-10 minutes, while shaking the tray or turning food periodically followed by placing the sample in an appropriate container.

[3] = General shelf-life extension of foods (spoilage criteria of Example 9)
Experimental: as §3, §4, §5, §6, §7, §8

[4] = Color loss of meat and fish; details: meat and fish
From the text: (§9) Most of the foods changed color or texture.
as §1

[5] = tested on: green tomato, papaya, banana, mango, peppers, tindora; assay: Ripening of fruits and vegetables (delayed or expedited); details: Example 106; Ripening; Green tomato; 2 hrs P-E; control 10 days
Experimental: as §3, §5, §6, §7
The untreated (control sample) and treated food were placed in proper sized plastic containers and the containers were tightly closed.
The following major criteria were used for determining spoilage of foods: growth of fungus, color change, unpleasant odor, wilting, firmness or shriveling, change of state (liquid to solid or vice versa), and sprouting or germination Example 10: Sources of food.

avocado = assay: Softening / rotten inside (spoiled flesh) of avocado; details: for Spoilage Time - Sample: Softening, 2 hrs P-E, control 2 days
From the text: as §9, §2

fungus = assay: Fungus growth on treated foods stored in closed containers at room temperature; details: for Spoilage Time - Sample: Fungus
From the text: as §9
Glass jars and bottles were also used. The containers were snap-closed or with a lid.
as §1, §2

For O=C1CCCCC1 [CY, Cyclohexanone], the “Effectiveness at extending the shelf-life of potatoes” value [1] was “effective”, the “Spoilage Time - Sample” value [2] was 11+ days and the “Spoilage Time - Sample” value ([2]; listed as cyclohexanone) was “significantly delayed”. The “Shelf-life of flowery vegetables” value ([3]; flowery vegetables) was “extended shelf-life”, the “Shelf-life of shelled and unshelled peanuts” value ([3]; peanuts) was “extended” and the “Effectiveness as shelf-life extender” value ([3]; tofu) was “effective”. The “Effectiveness for controlling one or more spoilage criteria” value ([3]; variety of foods) was “effective to a greater or lesser extent”, the “Improvements with meat and fish” value [4] was “demonstrated improvements” and the “Spoilage Time - Sample” value [5] was 18 days. For the same compound, the “Spoilage Time - Sample” value (avocado; Example 107, Florida avocado) was 2 days, the “Spoilage Time - Sample” value (avocado; Example 108, Avocado) was 2 days and the “Spoiling of the flesh with development of fungus” value (avocado; avocados, Examples 77, 78, 107, 108, 113 & 171) was “significantly delayed”. The “Spoilage Time - Sample” value (fungus; Example 93, Raspberry, Sachet, control 5 days) was 9 days, the “Spoilage Time - Sample” value (fungus; Example 95, Blueberry, Sachet, control 5 days) was 67 days and the “Spoilage Time - Sample” value (fungus; Example 96, Farmer's cheese, 0.5 hr P-E, control 5 days) was 34 days. For the same compound, the “Spoilage Time - Sample” value (fungus; Example 96, Farmer's cheese, 0.5 hr P-E, control 5 days, listed as cyclohexanone) was “delayed the growth of fungus”, the “Spoilage Time - Sample” value (fungus; Example 98, Lychee, Sachet, control 3 days) was 31 days and the “Spoilage Time - Sample” value (fungus; Example 99, Cheesecake, Sachet, control 6 days) was 8+ days. The “Spoilage Time - Sample” value (fungus; Example 100, Puri, 16 hrs P-E, control 5 days) was 70+ days, the “Spoilage Time - Sample” value (fungus; Example 101, Rotala, 16 hrs P-E, control 5 days) was 70+ days and the “Spoilage Time - Sample” value (fungus; Example 102, Monterey cheese, Sachet, control 7 days) was 10+ days. For the same compound, the “Spoilage Time - Sample” value (fungus; Example 102, Monterey cheese, Sachet, control 7 days, listed as cyclohexanone) was “either prevented or significantly delayed”, the Fungus growth (fungus; Indian millet bread, Indian wheat bread (roti), cheesecake, sachet or pre-exposure to vapors) was “either prevented or significantly delayed” and the Effectiveness on ginger (fungus; ginger, pre-exposure and sachet method) was “found effective”.
